According to the NIST ThermoML archive (doi:10.1016/j.jct.2017.07.024):

Key:
[1] = for surface tension liquid-gas: Maximal bubble pressure; for mass density: 100 kPa, Liquid, Vibrating tube method
[2] = refractive index (Na D-line) (dimensionless); details: 100 kPa, Liquid, Standard Abbe refractometry

CCCCCn1cc[n+](C)c1.C[C@@H](O)[C@H](N)C(=O)[O-] [1-pentyl-3-methylimidazolium DL-threoninate]
Details	mass density, [1] [kg/m3]	refractive index, [2]	surface tension liquid-gas, [1] [mN/m]
288.15 K	1107.7	1.508	38.2
293.15 K	1104.39	1.5065	37.8
298.15 K	1101.08	1.5048	37.6
303.15 K	1097.75	1.5032	37.2
308.15 K	1094.43	1.5018	36.9
313.15 K	1091.16	1.5001	36.6
318.15 K	1087.7	1.4987	36.2
323.15 K	1084.55	1.497	35.9
328.15 K	1081.25	1.4955	35.6

CCCCCCn1cc[n+](C)c1.C[C@@H](O)[C@H](N)C(=O)[O-] [1-hexyl-3-methylimidazolium DL-threoninate]
Details	mass density, [1] [kg/m3]	refractive index, [2]	surface tension liquid-gas, [1] [mN/m]
288.15 K	1089.98	1.5049	37
293.15 K	1086.67	1.5033	36.6
298.15 K	1083.36	1.5019	36.3
303.15 K	1080.02	1.5001	36
308.15 K	1076.7	1.4988	35.7
313.15 K	1073.42	1.4971	35.4
318.15 K	1069.96	1.4957	35
323.15 K	1066.82	1.494	34.7
328.15 K	1063.52	1.4925	34.4

CCCn1cc[n+](C)c1.C[C@@H](O)[C@H](N)C(=O)[O-] [1-propyl-3-methylimidazolium DL-threoninate]
Details	mass density, [1] [kg/m3]	refractive index, [2]	surface tension liquid-gas, [1] [mN/m]
288.15 K	1151.33	1.5147	41.4
293.15 K	1148.8	1.5131	41.1
298.15 K	1144.52	1.5116	40.7
303.15 K	1141.13	1.5101	40.4
308.15 K	1137.76	1.5086	40.1
313.15 K	1134.38	1.5071	39.8
318.15 K	1130.9	1.5055	39.4
323.15 K	1127.5	1.5039	39.1
328.15 K	1124.07	1.5026	38.7
